Assay results reported in paper doi:10.1101/839787v1 (bioRxiv, 2019).
Where a SMILES comes first, the peptide text is derived from it. Bridges are numbered along the chain shown (N, C = ends). Where no end group is shown, it is not given here.

Columns and labels:
Raw 264 macrophages = experiment: Inflammatory response in vitro: LPS-activated macrophages; format: cell-based, murine; details: 100 nmol/L peptide
[1] = In vitro stability of peptides in human plasma; format: in vitro ADME; details: for main metabolite / main degradation product: Mass Spectrometry
[2] = tested on: TNBS-induced chronic colitis; experiment: TNBS-induced chronic colitis; format: in vivo, Balb/c mice; details: tolerance regime, treatment during first week only; n=8
[3] = tested on: DSS-induced chronic colitis; experiment: DSS-induced chronic; format: in vivo, C57Bl/6 mice
Aqueous solubility = format: physicochemical; details: aqueous buffer solution, observation in words
[4] = tested on: DSS-induced acute colitis; experiment: DSS-induced acute ulcerative colitis; format: in vivo, C57Bl/6 mice; details: 5% DSS, i.p. days 1, 2, 3, day 8
[5] = tested on: TNBS-induced acute colitis; experiment: TNBS-induced acute colitis, protective regime; format: in vivo, BALB/c mice; details: TNBS 3 mg/mouse, 0.4 mg/kg systemic, n=8
[6] = tested on: TNBS-induced acute colitis; experiment: TNBS-induced acute colitis, curative regime; format: in vivo, BALB/c mice; details: TNBS 3 mg/mouse

Compound: Cc1cc(C)c(C[C@@H]2NC(=O)[C@H](Cc3ccccc3)NC(=O)[C@H](CC(N)=O)NC(=O)[C@H](CCCCN)NC(=O)[C@@H](NC(=O)[C@@H]3CCCN3)CSSC[C@@H](C(=O)N[C@@H](CCCCN)C(=O)O)NC(=O)[C@H](CO)NC(=O)[C@H]([C@@H](C)O)NC(=O)[C@H](Cc3ccccc3)NC(=O)[C@H]([C@@H](C)O)NC(=O)[C@H](CCCCN)NC(=O)[C@@H](Cc3c[nH]c4ccccc34)NC2=O)c(C)c1 [Analog 2]
- effect on production of TNFα, IL-6 and NO by activated macrophages (Raw 264 macrophages): no effect

Compound: CCCCCCCC(=O)N1CCC[C@H]1C(=O)N[C@H]1CSSC[C@@H](C(=O)N[C@@H](CCCCN)C(=O)O)NC(=O)[C@H](CO)NC(=O)[C@H]([C@@H](C)O)NC(=O)[C@H](Cc2ccccc2)NC(=O)[C@H]([C@@H](C)O)NC(=O)[C@H](CCCCN)NC(=O)[C@@H](Cc2c[nH]c3ccccc23)NC(=O)[C@H](Cc2c(C)cc(C)cc2C)NC(=O)[C@H](Cc2ccccc2)NC(=O)[C@H](CC(N)=O)NC(=O)[C@H](CCCCN)NC1=O [Analog 3]
- effect on production of TNFα, IL-6 and NO by activated macrophages (Raw 264 macrophages): no effect

Compound: Cc1cc(C)c(C[C@@H]2NC(=O)[C@H](CC(N)=O)NC(=O)[C@H](CCCCN)NC(=O)[C@@H](NC(=O)[C@@H]3CCCN3)CSSC[C@@H](C(=O)N[C@@H](CCCCN)C(=O)O)NC(=O)[C@H](CO)NC(=O)[C@H]([C@@H](C)O)NC(=O)[C@H](Cc3ccccc3)NC(=O)[C@H]([C@@H](C)O)NC(=O)[C@H](CCCCN)NC(=O)[C@@H](Cc3c[nH]c4ccccc34)NC(=O)[C@H](Cc3ccccc3)NC2=O)c(C)c1 [Analog 4, [L-Msa5_D-Trp7_L-Thr11]-CST14]
- effect on production of TNFα, IL-6 and NO by activated macrophages (Raw 264 macrophages): no effect

Compound: CCCCCCCC(=O)N1CCC[C@H]1C(=O)N[C@H]1CSSC[C@@H](C(=O)N[C@@H](CCCCN)C(=O)O)NC(=O)[C@H](CO)NC(=O)[C@H]([C@@H](C)O)NC(=O)[C@H](Cc2ccccc2)NC(=O)[C@H]([C@@H](C)O)NC(=O)[C@H](CCCCN)NC(=O)[C@@H](Cc2c[nH]c3ccccc23)NC(=O)[C@H](Cc2ccccc2)NC(=O)[C@H](Cc2c(C)cc(C)cc2C)NC(=O)[C@H](CC(N)=O)NC(=O)[C@H](CCCCN)NC1=O [Analog 5]
- effect on production of TNFα, IL-6 and NO by activated macrophages (Raw 264 macrophages): strikingly reduced
- main metabolite / main degradation product [1]: peptide 6
- increase of stability in serum with respect to the native neuropeptide ([1]; from half-lives in serum): ten-fold
- protection from subsequent expositions to TNBS, tolerance effect [2]: significantly protected
- Lengths (cm) for colons at day 25 after initiation of DSS treatment ([3]; Group 3: DSS+A5 one cycle, mean of 8 mice): 8.24 cm
- Lengths (cm) for colons at day 25 after initiation of DSS treatment ([3]; Group 3: DSS+A5 one cycle, mouse 1): 8.15 cm
- Lengths (cm) for colons at day 25 after initiation of DSS treatment ([3]; Group 3: DSS+A5 one cycle, mouse 2): 8.78 cm
- Lengths (cm) for colons at day 25 after initiation of DSS treatment ([3]; Group 3: DSS+A5 one cycle, mouse 3): 7.86 cm
- Lengths (cm) for colons at day 25 after initiation of DSS treatment ([3]; Group 3: DSS+A5 one cycle, mouse 5): 8.77 cm
- Lengths (cm) for colons at day 25 after initiation of DSS treatment ([3]; Group 3: DSS+A5 one cycle, mouse 6): 7.24 cm
- Lengths (cm) for colons at day 25 after initiation of DSS treatment ([3]; Group 3: DSS+A5 one cycle, mouse 7): 7.02 cm
- Lengths (cm) for colons at day 25 after initiation of DSS treatment ([3]; Group 3: DSS+A5 one cycle, mouse 8): 9.14 cm
- Lengths (cm) for colons at day 25 after initiation of DSS treatment ([3]; Group 4: DSS+A5 two cycles, mean of 8 mice): 9.64 cm
- Lengths (cm) for colons at day 25 after initiation of DSS treatment ([3]; Group 4: DSS+A5 two cycles, mouse 3): 9.85 cm
- Lengths (cm) for colons at day 25 after initiation of DSS treatment ([3]; Group 4: DSS+A5 two cycles, mouse 5): 9.34 cm
- Lengths (cm) for colons at day 25 after initiation of DSS treatment ([3]; Group 4: DSS+A5 two cycles, mouse 7): 9.61 cm
- Lengths (cm) for colons at day 25 after initiation of DSS treatment ([3]; Group 4: DSS+A5 two cycles, mouse 8): 9.15 cm
- aqueous solubility (Aqueous solubility): soluble
- Colon length ([4]; mean of n=8): 8.65 cm
- Colon weight ([4]; mean of n=8): 625 mg
- Macroscopic score for colon (0-8) ([4]; mean of n=8): 1
- Colon weight ([4]; mouse 1): 624 mg
- Macroscopic score for colon (0-8) ([4]; mouse 1): 1
- Colon length ([4]; mouse 2): 8.7 cm
- Colon weight ([4]; mouse 2): 631 mg
- Macroscopic score for colon (0-8) ([4]; mouse 2): 1
- Colon length ([4]; mouse 3): 9.3 cm
- Colon weight ([4]; mouse 3): 581 mg
- Macroscopic score for colon (0-8) ([4]; mouse 3): 0
- Colon length ([4]; mouse 4): 7.8 cm
- Colon weight ([4]; mouse 4): 662 mg
- Macroscopic score for colon (0-8) ([4]; mouse 4): 2
- Colon length ([4]; mouse 5): 9.2 cm
- Colon weight ([4]; mouse 5): 611 mg
- Macroscopic score for colon (0-8) ([4]; mouse 5): 0
- Colon length ([4]; mouse 6): 8.4 cm
- Colon weight ([4]; mouse 6): 597 mg
- Macroscopic score for colon (0-8) ([4]; mouse 6): 1
- Colon length ([4]; mouse 7): 8.6 cm
- Colon weight ([4]; mouse 7): 624 mg
- Macroscopic score for colon (0-8) ([4]; mouse 7): 1
- Colon length ([4]; mouse 8): 8.1 cm
- Colon weight ([4]; mouse 8): 677 mg
- Macroscopic score for colon (0-8) ([4]; mouse 8): 2
- protection from body weight loss, bloody diarrhea and mortality [5]: significantly protected
- effect on clinical signs and survival ([6]; curative regime days 3, 4, 5, i.p. or s.c. 0.4 mg/kg, n=8): significantly effective
- effectiveness of oral administration versus i.p. and s.c. ([6]; curative regime, oral): less effective

Compound: C[C@@H](O)[C@@H]1NC(=O)[C@H](CCCCN)NC(=O)[C@H](Cc2c[nH]c3ccccc23)NC(=O)[C@H](Cc2ccccc2)NC(=O)[C@H](Cc2ccccc2)NC(=O)[C@H](CC(N)=O)NC(=O)[C@H](CCCCN)NC(=O)[C@@H](NC(=O)[C@@H]2CCCN2)CSSC[C@@H](C(=O)N[C@@H](CCCCN)C(=O)O)NC(=O)[C@H](CO)NC(=O)[C@H](CO)NC(=O)[C@H](Cc2ccccc2)NC1=O [Cortistatin, Cortistatin-14, reference compound] (H-PCKNFFWKTFSSCK-OH; disulfide 2-13)
- main metabolite / main degradation product [1]: deletion of L-Lys14

Compound: Nc1ccc(O)c(C(=O)O)c1 [mesalazine, 5-aminosalycilic acid, reference compound]
- protection from subsequent expositions to TNBS, tolerance effect [2]: fully or partially failed

Compound: Cortistatin-29 (QEGAPPQQSARRDRMPCRNFFWKTFSSCK; disulfide 17-28 (inferred); ends not checked; UniProt O00230 77-105, looked up)
- Colon length ([4]; mean of n=8): 9.08 cm
- Colon weight ([4]; mean of n=8): 621 mg
- Macroscopic score for colon (0-8) ([4]; mean of n=8): 0.87
- Colon length ([4]; mouse 1): 8.9 cm
- Colon weight ([4]; mouse 1): 622 mg
- Macroscopic score for colon (0-8) ([4]; mouse 1): 1
- Colon length ([4]; mouse 2): 9.1 cm
- Colon weight ([4]; mouse 2): 634 mg
- Macroscopic score for colon (0-8) ([4]; mouse 2): 1
- Colon length ([4]; mouse 3): 9.5 cm
- Colon weight ([4]; mouse 3): 578 mg
- Macroscopic score for colon (0-8) ([4]; mouse 3): 0
- Colon length ([4]; mouse 4): 8.4 cm
- Colon weight ([4]; mouse 4): 655 mg
- Macroscopic score for colon (0-8) ([4]; mouse 4): 2
- Colon length ([4]; mouse 5): 9.2 cm
- Colon weight ([4]; mouse 5): 607 mg
- Macroscopic score for colon (0-8) ([4]; mouse 5): 1
- Colon length ([4]; mouse 6): 8.9 cm
- Colon weight ([4]; mouse 6): 632 mg
- Macroscopic score for colon (0-8) ([4]; mouse 6): 1
- Colon length ([4]; mouse 7): 9.6 cm
- Colon weight ([4]; mouse 7): 612 mg
- Macroscopic score for colon (0-8) ([4]; mouse 7): 0
- Colon length ([4]; mouse 8): 9.1 cm
- Colon weight ([4]; mouse 8): 635 mg
- Macroscopic score for colon (0-8) ([4]; mouse 8): 1
